# Laboratory results taken from patent publication US20230117034A1, “PYRAZOLOTRIAZINES” (Bayer Aktiengesellschaft, priority 2019, published 2023).
# Biological target: T1, CDK12 protein level in CAL-120 breast cancer cells (Homo sapiens, UniProt Q9NYV4)
# T1 construct: endogenous in cells; host or cells: CAL-120 human breast cancer cells (DSMZ ACC 459)
# Assay: CDK12 protein level: Protein Simple (CDK12, CAL-120)
# Format: cell-based
# Conditions: CAL-120 cells, 18 h with compound, CDK12/HSP90 peak area ratio vs vehicle, median, read-out: CDK12 protein level in CAL-120 breast ca cells, DC50-[mol/l] (median)
# Outline: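 Cells grown 24 h, then treated with compounds for 18 h at 37° C against DMSO controls. Lysates (0.4 microgramms protein) run on Protein Simple 66-440 kDa size assay with CDK12 and HSP90 loading-control antibodies. CDK12/HSP90 peak-area ratios versus vehicle gave DC50 (50% reduction) by 4-parameter fit.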
# T1 sequence (Q9NYV4 whole entry): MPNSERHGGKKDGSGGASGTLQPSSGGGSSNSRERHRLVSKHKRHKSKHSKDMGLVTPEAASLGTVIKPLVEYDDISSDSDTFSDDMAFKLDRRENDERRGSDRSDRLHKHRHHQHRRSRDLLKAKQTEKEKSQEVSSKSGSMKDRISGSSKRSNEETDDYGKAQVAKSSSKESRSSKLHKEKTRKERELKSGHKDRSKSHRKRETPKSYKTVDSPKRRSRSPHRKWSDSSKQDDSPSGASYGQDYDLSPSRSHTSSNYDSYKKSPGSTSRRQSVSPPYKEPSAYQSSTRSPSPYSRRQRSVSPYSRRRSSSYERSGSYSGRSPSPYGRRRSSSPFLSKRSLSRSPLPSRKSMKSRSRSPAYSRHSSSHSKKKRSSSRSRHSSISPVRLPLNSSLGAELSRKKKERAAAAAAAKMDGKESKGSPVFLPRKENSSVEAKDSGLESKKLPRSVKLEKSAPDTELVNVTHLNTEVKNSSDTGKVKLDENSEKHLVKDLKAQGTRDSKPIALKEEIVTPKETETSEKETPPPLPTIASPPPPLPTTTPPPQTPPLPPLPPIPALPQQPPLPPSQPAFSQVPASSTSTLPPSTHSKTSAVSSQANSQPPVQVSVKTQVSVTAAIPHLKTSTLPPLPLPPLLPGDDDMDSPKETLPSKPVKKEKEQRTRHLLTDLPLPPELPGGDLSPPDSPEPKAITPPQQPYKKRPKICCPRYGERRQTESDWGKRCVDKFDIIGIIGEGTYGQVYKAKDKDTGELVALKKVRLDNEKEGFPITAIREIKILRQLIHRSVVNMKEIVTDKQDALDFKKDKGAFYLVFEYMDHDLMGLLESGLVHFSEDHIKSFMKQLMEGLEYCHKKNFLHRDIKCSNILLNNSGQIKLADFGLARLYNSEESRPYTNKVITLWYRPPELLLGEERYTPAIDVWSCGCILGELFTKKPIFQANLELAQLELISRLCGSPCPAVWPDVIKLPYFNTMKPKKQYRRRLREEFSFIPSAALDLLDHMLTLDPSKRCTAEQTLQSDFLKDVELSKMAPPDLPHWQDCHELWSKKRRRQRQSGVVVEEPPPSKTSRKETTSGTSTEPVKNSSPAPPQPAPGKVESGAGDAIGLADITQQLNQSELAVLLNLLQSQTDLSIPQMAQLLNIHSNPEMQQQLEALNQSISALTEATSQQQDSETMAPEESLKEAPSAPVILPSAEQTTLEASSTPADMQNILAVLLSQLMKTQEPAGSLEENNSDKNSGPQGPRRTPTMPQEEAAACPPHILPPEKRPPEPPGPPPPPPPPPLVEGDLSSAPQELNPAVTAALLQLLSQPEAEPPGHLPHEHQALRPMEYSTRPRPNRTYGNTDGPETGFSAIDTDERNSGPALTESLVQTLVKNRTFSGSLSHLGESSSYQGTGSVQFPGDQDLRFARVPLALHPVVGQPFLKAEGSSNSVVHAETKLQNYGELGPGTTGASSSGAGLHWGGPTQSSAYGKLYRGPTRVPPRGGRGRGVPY
# T1 sequence (O75909 whole entry partner): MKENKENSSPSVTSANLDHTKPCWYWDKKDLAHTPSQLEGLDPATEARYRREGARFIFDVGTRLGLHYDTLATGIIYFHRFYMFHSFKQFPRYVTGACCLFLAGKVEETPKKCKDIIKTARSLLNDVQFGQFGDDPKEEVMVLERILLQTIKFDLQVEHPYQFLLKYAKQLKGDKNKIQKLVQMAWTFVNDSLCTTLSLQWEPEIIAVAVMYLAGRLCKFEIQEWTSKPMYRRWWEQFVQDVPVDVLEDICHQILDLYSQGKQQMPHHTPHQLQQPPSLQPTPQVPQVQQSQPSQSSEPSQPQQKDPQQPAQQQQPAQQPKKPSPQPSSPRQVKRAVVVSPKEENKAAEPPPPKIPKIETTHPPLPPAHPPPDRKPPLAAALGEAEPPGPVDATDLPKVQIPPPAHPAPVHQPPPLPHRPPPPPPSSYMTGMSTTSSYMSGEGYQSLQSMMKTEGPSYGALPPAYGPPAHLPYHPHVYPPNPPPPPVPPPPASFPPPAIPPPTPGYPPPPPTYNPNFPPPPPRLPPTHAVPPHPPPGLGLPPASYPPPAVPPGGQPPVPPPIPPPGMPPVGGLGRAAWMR
row,Compound,DC50 [µM]
1,"Cc1[nH]c(CNc2nc(N3CCOCC3)nc3c(Br)cnn23)nc1-c1ccccc1 [Example 27, 8-bromo-N-[(5-methyl-4-phenyl-1H-imidazol-2-yl)methyl]-2-(morpholin-4-yl)pyrazolo[1,5-a][1,3,5]triazin-4-amine]",0.0446
2,"Cc1ccnc2[nH]c(CNc3nc(N4CCOCC4)nc4c(C(C)C)cnn34)nc12 [Example 28, N-[(7-methyl-3H-imidazo[4,5-b]pyridin-2-yl)methyl]-2-(morpholin-4-yl)-8-(propan-2-yl)pyrazolo[1,5-a][1,3,5]triazin-4-amine]",0.00144
3,"CC(C)c1cnn2c(NCc3ncc(-c4ccccc4)[nH]3)nc(N3CCN(C)CC3)nc12 [Example 31, 2-(4-methylpiperazin-1-yl)-N-[(5-phenyl-1H-imidazol-2-yl)methyl]-8-(propan-2-yl)pyrazolo[1,5-a][1,3,5]triazin-4-amine]",0.0109
4,"Fc1ccc(-c2nnc(CNc3nc(N4CCOCC4)nc4c(Br)cnn34)[nH]2)cc1 [Example 29, 8-bromo-N-{[5-(4-fluorophenyl)-4H-1,2,4-triazol-3-yl]methyl}-2-(morpholin-4-yl)pyrazolo[1,5-a][1,3,5]triazin-4-amine]",0.00915
